Laboratory results: patent publication US7411039B2, “GLP-2 compounds, formulations, and uses thereof” (Novo Nordisk A/S, priority 2002, dated 2008)
Like-named read-outs stand apart in the source and are kept apart here.

Columns and labels:
[1] = tested on: growth of the small intestine in mice; format: in vivo; conditions: for Small intestinal weight, Mean ± SD / Small intestinal weight/body weight, Mean ± SD: group mean
Source text: Bioassay in Mice. Dose-Response Study of GLP-2 Derivatives. • Table 3. Model parameter estimates following nonlinear regression analysis of dose and small intestinal weights relative to body weight. • Table 4. Model parameter estimates following nonlinear regression analysis of dose and small intestinal weights. • Table 5. Body weight, small intestinal weight and relative small intestinal weight of mice treated with L17K(3-(tetradecanoylamino)propionyl)/K30R-[…]. • Table 6. […]. Body weight, small intestinal weight and relative small intestinal weight of mice treated with A2G-[…]. • Table 8. Body weight, small intestinal weight and relative small intestinal weight of control mice.
The following GLP-2 derivatives and analog were tested: • 1. L17K(3-(tetradecanoylamino)propionyl)/K30R-[…]. • 2. L17K(3-(hexadecanoylamino)propionyl)/K30R-[…]. • 3. A2G-[…]. All derivatives were dissolved and diluted in buffer containing:
Disodiumhydrogenphosphate 1.42 mg/ml, Mannitol 36.9 mg/ml, Phenol 5 mg/ml, pH 8.0.
189 female C57b1 mice were used in the study. All animals were divided into four groups:
• Group 1: Controls • Group 2: L17K(3-(tetradecanoylamino)propionyl)/K30R-[…] • Group 3: L17K(3-(hexadecanoylamino)propionyl)/K30R-[…] • Group 4: A2G-[…] Dosing
All animals received a daily subcutaneous injection of 100 pi for 10 days with the following doses:
At Day 10 the animals were weighted before they were sacrificed. The intestine was carefully removed from each animal and the small intestine dissected, rinsed with saline and weighted.
Body weight, small intestinal weight and small intestinal weight relative to body weight were reported for all animals and used generating the dose-response relationship. The treatment-induced increase in both absolute and relative small intestinal weight is calculated for each treatment group, since this is considered the pharmacologically relevant efficacy parameter.
A generalised Michaelis-Menten model, with shape factor γ corresponding to the Hillslope in the semilogarithmic dose-response curve and E0 representing the background efficacy level at D=0, was used as dose-response model. Emax is the maximal effect observed and ED50 is the dose that gives an effect equal to 50% of Emax. The model was used because of the higher flexibility compared to a four parameter logistic dose-response model (1). The model was fitted to data using nonlinear regression in order to determine estimates for Emax, ED50, γ and E0.
[formula] The goodness of fit was evaluated by visual inspection of plots showing observed data points together with fitted curves and residuals plots. Parameter estimates are presented together with CV % and 95% C.I.
In order to account for the variability in the background efficacy level, control data were included in the nonlinear regression analysis as D=0 for all three treatment groups.
The nonlinear regression analyses were performed using WinNonlin Professional, version 3.1, Pharsight. The nonlinear regression was performed using the Gauss-Newton (Levenberg and Hartley) algorithm.

[2] = tested on: Dextran sulfate (DS)-induced colitis; conditions: 350 ng or 750 ng s.c. twice daily for 9-10 days, cited from earlier work
[3] = background efficacy level at D=0, nonlinear regression of dose-response, mice, daily s.c. for 10 days
[4] = dose level A, 33 μg daily s.c. for 10 days
[5] = dose level B, 16.5 μg daily s.c. for 10 days
[6] = dose level C, 8.25 μg daily s.c. for 10 days
[7] = dose level D, 4.125 μg daily s.c. for 10 days
[8] = dose level E, 2.063 μg daily s.c. for 10 days
[9] = dose level F, 1.031 μg daily s.c. for 10 days
[10] = dose level G, 0.512 μg daily s.c. for 10 days
[11] = nonlinear regression of dose-response
[12] = nonlinear regression of dose-response, mice, daily s.c. for 10 days
[13] = treatment-induced increase, secondary parameter of curve fitting

Structure (SMILES): CC[C@H](C)[C@H](NC(=O)[C@H](Cc1ccccc1)NC(=O)[C@H](CC(=O)O)NC(=O)[C@H](CCCNC(=N)N)NC(=O)[C@H](C)NC(=O)[C@H](C)NC(=O)[C@H](CC(C)C)NC(=O)[C@H](CC(N)=O)NC(=O)[C@H](CC(=O)O)NC(=O)[C@H](CC(C)C)NC(=O)[C@@H](NC(=O)[C@@H](NC(=O)[C@H](CC(N)=O)NC(=O)[C@H](CCSC)NC(=O)[C@H](CCC(=O)O)NC(=O)[C@H](CC(=O)O)NC(=O)[C@H](CO)NC(=O)[C@H](Cc1ccccc1)NC(=O)[C@H](CO)NC(=O)CNC(=O)[C@H](CC(=O)O)NC(=O)CNC(=O)[C@@H](N)Cc1c[nH]cn1)[C@@H](C)O)[C@@H](C)CC)C(=O)N[C@@H](CC(N)=O)C(=O)N[C@@H](Cc1c[nH]c2ccccc12)C(=O)N[C@@H](CC(C)C)C(=O)N[C@H](C(=O)N[C@@H](CCC(N)=O)C(=O)N[C@H](C(=O)N[C@@H](CCCCN)C(=O)N[C@H](C(=O)N[C@H](C(=O)N[C@@H](CC(=O)O)C(=O)O)[C@@H](C)O)[C@@H](C)CC)[C@@H](C)O)[C@@H](C)CC [A2G-GLP-2(1-33)]
- E0, parameter estimate (CV %), small intestinal weight [1, 3]: 1.1095 (2.0) g
- E0, parameter estimate (CV %), small intestinal weight relative to body weight [1, 3]: 0.0425 (2.4)
- Small intestinal weight, Mean ± SD [1, 4]: 1.2300 ± 0.1602 g
- Small intestinal weight/body weight, Mean ± SD [1, 4]: 0.0501 ± 0.0057
- Small intestinal weight, Mean ± SD [1, 5]: 1.1775 ± 0.1337 g
- Small intestinal weight/body weight, Mean ± SD [1, 5]: 0.0489 ± 0.0042
- Small intestinal weight, Mean ± SD [1, 6]: 1.2463 ± 0.1235 g
- Small intestinal weight/body weight, Mean ± SD [1, 6]: 0.0484 ± 0.0052
- Small intestinal weight, Mean ± SD [1, 7]: 1.1713 ± 0.1687 g
- Small intestinal weight/body weight, Mean ± SD [1, 7]: 0.0448 ± 0.0054
- Small intestinal weight, Mean ± SD [1, 8]: 1.0750 ± 0.1124 g
- Small intestinal weight/body weight, Mean ± SD [1, 8]: 0.0443 ± 0.0027
- Small intestinal weight, Mean ± SD [1, 9]: 1.1688 ± 0.0923 g
- Small intestinal weight/body weight, Mean ± SD [1, 9]: 0.0461 ± 0.0041
- Small intestinal weight, Mean ± SD [1, 10]: 1.1075 ± 0.1014 g
- Small intestinal weight/body weight, Mean ± SD [1, 10]: 0.0436 ± 0.0036
- γ (shape factor, Hillslope), parameter estimate (CV %), small intestinal weight [1, 11]: 8.4169 (1869)
- γ (shape factor, Hillslope), parameter estimate (CV %), small intestinal weight relative to body weight [1, 11]: 0.6625 (109)
- Emax, parameter estimate (CV %), small intestinal weight [1, 12]: 1.2180 (2.3) g
- Emax, parameter estimate (CV %), small intestinal weight relative to body weight [1, 12]: 0.0548 (33.3)
- Emax − E0, parameter estimate (CV %), small intestinal weight [1, 13]: 0.1085 (34.8) g
- Emax − E0, parameter estimate (CV %), small intestinal weight relative to body weight [1, 13]: 0.0123 (151)
- histology of colon ([2]; DS mice): exhibited a greater proportion of intact mucosal epithelium, increased colon length, crypt depth and mucosal area
- body weight loss ([2]; mice receiving 5% DS in the drinking water): lost significantly less body weight
